Tests used:
Format in all cases: in vivo
Scirpus juncoides = assay: Test Example 1: herbicidal activity, application before weed generation in submerged conditions (symbol B); conditions: application herbicide amount 320 g/ha
In short: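 Compound emulsion was diluted to a set herbicide amount and applied to the water surface on the sowing day, into submerged (4 cm) alluvial-soil pots sown with mixed weed seeds and transplanted 2.5-leaf rice. Pots were held in a 25–30 °C greenhouse, and weeds were scored 0–5 by herbicidal ratio after 3 weeks.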

Setaria viridis [1] = assay: Test Example 4: herbicidal effect by soil treatment (symbol G); conditions: application herbicide amount 320 g/ha
In short: (§1)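 Seeds were sown in sterilized diluvial soil, covered with about 1.5 cm of soil, and the soil surface was sprayed with a water-diluted emulsion of the compound at a predetermined rate. Plants grew in a greenhouse at 25° C. to 30° C.; effects were scored visually 3 weeks after application.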

Avena fatua = assay: Test Example 4: herbicidal effect by soil treatment (symbol I); conditions: application herbicide amount 320 g/ha
In short: as §1

Alopecurus myosuroides [2] = assay: Test Example 4: herbicidal effect by soil treatment (symbol J); conditions: application herbicide amount 320 g/ha
In short: as §1

Lolium multiflorum Lam. = assay: Test Example 4: herbicidal effect by soil treatment (symbol K); conditions: application herbicide amount 320 g/ha
In short: as §1

Abutilon theophrasti = assay: Test Example 4: herbicidal effect by soil treatment (symbol M); conditions: application herbicide amount 320 g/ha
In short: as §1

Amaranthus retroflexus [3] = assay: Test Example 4: herbicidal effect by soil treatment (symbol N); conditions: application herbicide amount 320 g/ha
In short: as §1

Stellaria media = assay: Test Example 4: herbicidal effect by soil treatment (symbol P); conditions: application herbicide amount 320 g/ha
In short: as §1

Galium spurium [4] = assay: Test Example 4: herbicidal effect by soil treatment (symbol Q); conditions: application herbicide amount 320 g/ha
In short: as §1

corn = assay: Test Example 4: effect on crop by soil treatment (symbol c); conditions: application herbicide amount 320 g/ha
In short: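 Greenhouse culture at 25° C. to 30° C. followed sowing of seed in spots on sterilized diluvial soil with a soil cover close to 1.5 cm thick.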

soybean [5] = assay: Test Example 4: effect on crop by soil treatment (symbol d); conditions: application herbicide amount 320 g/ha
In short: (§2)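 Crop seeds, among them rice, wheat, beet and rapeseed, were sown in sterilized diluvial soil and covered with about 1.5 cm of soil. Boxes were kept in a greenhouse at 25° C. to 30° C. for plant growth.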

rice = assay: Test Example 4: effect on crop by soil treatment (symbol b); conditions: application herbicide amount 320 g/ha
In short: as §2

wheat [6] = assay: Test Example 4: effect on crop by soil treatment (symbol e); conditions: application herbicide amount 320 g/ha
In short: as §2

Digitaria ciliaris = assay: Test Example 5: herbicidal effect by foliage application, plastic box (symbol F); conditions: 320 g/ha, 3 weeks after application
In short: (§3)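 Visual herbicidal score, taken three weeks post-application, of seedlings sprayed on the foliage with water-diluted emulsion at a predetermined amount; plants were 14 days old, greenhouse-raised at 25° C. to 30° C.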

Setaria viridis [7] = assay: Test Example 5: herbicidal effect by foliage application, plastic box (symbol G); conditions: 320 g/ha, 3 weeks after application
In short: as §3

[8] = system: Echinochloa crus-galli var. crus-galli; assay: Test Example 5: herbicidal effect by foliage application, plastic box (symbol H); conditions: 320 g/ha, 3 weeks after application
In short: as §3

Alopecurus myosuroides [9] = assay: Test Example 5: herbicidal effect by foliage application, plastic box (symbol J); conditions: 320 g/ha, 3 weeks after application
In short: as §3

Amaranthus retroflexus [10] = assay: Test Example 5: herbicidal effect by foliage application, plastic box (symbol N); conditions: 320 g/ha, 3 weeks after application
In short: as §3

Galium spurium [11] = assay: Test Example 5: herbicidal effect by foliage application, plastic box (symbol Q); conditions: 320 g/ha, 3 weeks after application
In short: as §3

soybean [12] = assay: Test Example 5: effect on crop by foliage application, plastic box (symbol d); conditions: 320 g/ha, 3 weeks after application
In short: (§4)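 Crop and weed seeds sown in spots in sterilized diluvial soil in plastic boxes and covered with about 1.5 cm soil. Plants raised in a greenhouse at 25° C. to 30° C. for foliar application.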

rice plant = assay: Test Example 5: effect on crop by foliage application, plastic box (symbol b); conditions: 320 g/ha, 3 weeks after application
In short: as §4

wheat [13] = assay: Test Example 5: effect on crop by foliage application, plastic box (symbol e); conditions: 320 g/ha, 3 weeks after application
In short: as §4

Compound	Herbicidal effect grade, B: Scirpus juncoides (Scirpus juncoides)	G: Setaria viridis, herbicidal effect grade (Setaria viridis [1])	I: Avena fatua, herbicidal effect grade (Avena fatua)	J: Alopecurus myosuroides, herbicidal effect grade (Alopecurus myosuroides [2])	K: Lolium multiflorum Lam., herbicidal effect grade (Lolium multiflorum Lam.)	M: Abutilon theophrasti, herbicidal effect grade (Abutilon theophrasti)	N: Amaranthus retroflexus, herbicidal effect grade (Amaranthus retroflexus [3])	P: Stellaria media, herbicidal effect grade (Stellaria media)	Q: Galium spurium, herbicidal effect grade (Galium spurium [4])	c: corn, effect on crop grade (corn)	d: soybean, effect on crop grade (soybean [5])	b: directly sowed rice plant, effect on crop grade (rice)	e: wheat, effect on crop grade (wheat [6])	F: Digitaria ciliaris, herbicidal effect (criteria of Test Example 1) (Digitaria ciliaris)	G: Setaria viridis, herbicidal effect (criteria of Test Example 1) (Setaria viridis [7])	H: Echinochloa crus-galli var. crus-galli, herbicidal effect (criteria of Test Example 1) [8]	J: Alopecurus myosuroides, herbicidal effect (criteria of Test Example 1) (Alopecurus myosuroides [9])	N: Amaranthus retroflexus, herbicidal effect (criteria of Test Example 1) (Amaranthus retroflexus [10])	Q: Galium spurium, herbicidal effect (criteria of Test Example 1) (Galium spurium [11])	d: soybean, effect on crop (criteria of Test Example 1) (soybean [12])	also measured
CON=C(C)CC1CC(O)=C(c2c(C)cc(C(C)=NOC)cc2C)C1=O (stereo not drawn) [6-065]	2 (Herbicidal ratio of 20% or higher and lower than 40%)	5 (Herbicidal ratio of 90% or more (almost completely withered))	4 (Herbicidal ratio of 70% or higher and lower than 90%)	5 (Herbicidal ratio of 90% or more (almost completely withered))	5 (Herbicidal ratio of 90% or more (almost completely withered))	0 (Herbicidal ratio of 5% or lower (almost no effect))	4 (Herbicidal ratio of 70% or higher and lower than 90%)	4 (Herbicidal ratio of 70% or higher and lower than 90%)	4 (Herbicidal ratio of 70% or higher and lower than 90%)	5 (Herbicidal ratio of 90% or more (almost completely withered))	0 (Herbicidal ratio of 5% or lower (almost no effect))	5 (Herbicidal ratio of 90% or more (almost completely withered))	5 (Herbicidal ratio of 90% or more (almost completely withered))	5 (Herbicidal ratio of 90% or more (almost completely withered))	5 (Herbicidal ratio of 90% or more (almost completely withered))	5 (Herbicidal ratio of 90% or more (almost completely withered))	5 (Herbicidal ratio of 90% or more (almost completely withered))	0 (Herbicidal ratio of 5% or lower (almost no effect))	3 (Herbicidal ratio of 40% or higher and lower than 70%)	1 (Herbicidal ratio of 5% or higher and lower than 20%)	b: directly sowed rice plant, effect on crop (criteria of Test Example 1) (rice plant): 5 (Herbicidal ratio of 90% or more (almost completely withered)); e: wheat, effect on crop (criteria of Test Example 1) (wheat [13]): 5 (Herbicidal ratio of 90% or more (almost completely withered))
CON=C(C)CC1CC(O)=C(c2c(C)cc(-n3cccn3)cc2C)C1=O (stereo not drawn) [6-073]	1 (Herbicidal ratio of 5% or higher and lower than 20%)	5 (Herbicidal ratio of 90% or more (almost completely withered))	3 (Herbicidal ratio of 40% or higher and lower than 70%)	2 (Herbicidal ratio of 20% or higher and lower than 40%)	5 (Herbicidal ratio of 90% or more (almost completely withered))	0 (Herbicidal ratio of 5% or lower (almost no effect))	0 (Herbicidal ratio of 5% or lower (almost no effect))	0 (Herbicidal ratio of 5% or lower (almost no effect))	0 (Herbicidal ratio of 5% or lower (almost no effect))	3 (Herbicidal ratio of 40% or higher and lower than 70%)	0 (Herbicidal ratio of 5% or lower (almost no effect))	5 (Herbicidal ratio of 90% or more (almost completely withered))	2 (Herbicidal ratio of 20% or higher and lower than 40%)	5 (Herbicidal ratio of 90% or more (almost completely withered))	5 (Herbicidal ratio of 90% or more (almost completely withered))	5 (Herbicidal ratio of 90% or more (almost completely withered))	5 (Herbicidal ratio of 90% or more (almost completely withered))	0 (Herbicidal ratio of 5% or lower (almost no effect))	3 (Herbicidal ratio of 40% or higher and lower than 70%)	0 (Herbicidal ratio of 5% or lower (almost no effect))	b: directly sowed rice plant, effect on crop (criteria of Test Example 1) (rice plant): 5 (Herbicidal ratio of 90% or more (almost completely withered)); e: wheat, effect on crop (criteria of Test Example 1) (wheat [13]): 3 (Herbicidal ratio of 40% or higher and lower than 70%)
CON=C(C)CC1CC(O)=C(c2c(C)cc(-n3cncn3)cc2C)C1=O (stereo not drawn) [6-074]	0 (Herbicidal ratio of 5% or lower (almost no effect))	2 (Herbicidal ratio of 20% or higher and lower than 40%)	0 (Herbicidal ratio of 5% or lower (almost no effect))	0 (Herbicidal ratio of 5% or lower (almost no effect))	0 (Herbicidal ratio of 5% or lower (almost no effect))	0 (Herbicidal ratio of 5% or lower (almost no effect))	0 (Herbicidal ratio of 5% or lower (almost no effect))	0 (Herbicidal ratio of 5% or lower (almost no effect))	0 (Herbicidal ratio of 5% or lower (almost no effect))	0 (Herbicidal ratio of 5% or lower (almost no effect))	0 (Herbicidal ratio of 5% or lower (almost no effect))	3 (Herbicidal ratio of 40% or higher and lower than 70%)	0 (Herbicidal ratio of 5% or lower (almost no effect))	0 (Herbicidal ratio of 5% or lower (almost no effect))	4 (Herbicidal ratio of 70% or higher and lower than 90%)	3 (Herbicidal ratio of 40% or higher and lower than 70%)	0 (Herbicidal ratio of 5% or lower (almost no effect))	0 (Herbicidal ratio of 5% or lower (almost no effect))	0 (Herbicidal ratio of 5% or lower (almost no effect))	0 (Herbicidal ratio of 5% or lower (almost no effect))	b: directly sowed rice plant, effect on crop (criteria of Test Example 1) (rice plant): 2 (Herbicidal ratio of 20% or higher and lower than 40%); e: wheat, effect on crop (criteria of Test Example 1) (wheat [13]): 0 (Herbicidal ratio of 5% or lower (almost no effect))
